Assay [1] has as its system MG-22A. As to the kind of experiment: Cytotoxicity against mouse MG-22A cells assessed as reduction in cell growth by measuring lethal concentration for 72 hrs by MTT assay. Format: functional. (Tetrazolium dyes change colour on reduction, which living cells bring about.)
Assay [2] has as its system HT-1080. As to the kind of experiment: Cytotoxicity against human HT-1080 cells assessed as reduction in cell growth by measuring lethal concentration for 72 hrs by MTT assay. Format: functional.
Assay [3] concerns Panel NCI-60 (60 carcinoma cell lines). As to the kind of experiment: Cytotoxicity against human Panel NCI-60 (60 carcinoma cell lines) assessed as reduction in cell growth incubated for 72 hrs by CCK-8 assay. Format: functional, cell-based.
Assay [4] addresses Hydroxycarboxylic acid receptor 2 (Rattus norvegicus, UniProt Q80Z39). As to the kind of experiment: Agonist activity at rat GPR109A transfected in T-REX-CHO cells by cAMP assay. Format: cell-based. Background: Changes in cAMP serve as a functional read-out for many G protein-coupled receptors.
The nature of assay [5]: Agonist activity at rat GPR81 transfected in T-REX-CHO cells by cAMP assay. Format: cell-based.
Assay [6] deals with Staphylococcus epidermidis. As to the kind of experiment: Antibacterial activity against Staphylococcus epidermidis assessed as inhibition of bacterial growth incubated for 24 hrs by nutrient agar plate method. Format: functional.
Another assay relates to Pseudomonas aeruginosa. As to the kind of experiment: Antibacterial activity against Pseudomonas aeruginosa PTCC 1074 assessed as reduction in cell growth incubated for 24 hrs by Mueller-Hinton Broth micro dilution method. Format: functional.
Assay [7] has as its system Staphylococcus aureus. As to the kind of experiment: Antibacterial activity against Staphylococcus aureus PTCC 1112 assessed as reduction in cell growth incubated for 24 hrs by Mueller-Hinton Broth micro dilution method. The assay is classed as functional.
For the next assay, the system named is Salmonella typhimurium. As to the kind of experiment: Antibacterial activity against Salmonella enterica subsp. enterica serovar Typhimurium PTCC 1609 assessed as reduction in cell growth incubated for 24 hrs by Mueller-Hinton Broth micro dilution method. The assay is classed as functional.
Assay [8] concerns Escherichia coli. As to the kind of experiment: Antibacterial activity against Escherichia coli PTCC 1330 assessed as reduction in cell growth incubated for 24 hrs by Mueller-Hinton Broth micro dilution method. Format: functional.
Assay [9] deals with HT-1080. As to the kind of experiment: Cytotoxicity against human HT-1080 cells assessed as reduction in cell growth measured for 72 hrs by crystal violet staining based analysis. The assay is classed as functional. The settings on record: HT-1080, 72 h.
Assay [10] has as its system MG-22A. As to the kind of experiment: Cytotoxicity against mouse MG-22A cells assessed as reduction in cell growth measured for 72 hrs by crystal violet staining based analysis. Format: functional.
The next assay concerns Bacillus subtilis. As to the kind of experiment: Antibacterial activity against Bacillus subtilis assessed as reduction in bacterial growth incubated for 12 hrs by broth micr-dilution method. Format: functional.
In assay [11] the test system is Escherichia coli. As to the kind of experiment: Antibacterial activity against Escherichia coli assessed as reduction in bacterial growth incubated for 12 hrs by broth micr-dilution method. Format: functional.
A further assay has as its system Vibrio cholerae. As to the kind of experiment: Antibacterial activity against Vibrio cholerae assessed as inhibition of bacterial growth. Format: functional.
Assay [12] deals with Staphylococcus aureus. As to the kind of experiment: Antibacterial activity against Staphylococcus aureus assessed as reduction in bacterial growth incubated for 12 hrs by broth micr-dilution method. The assay is classed as functional.

Converted amounts (≈) assume the structure as drawn.

Chain of Hydroxycarboxylic acid receptor 2 (Q80Z39 whole entry): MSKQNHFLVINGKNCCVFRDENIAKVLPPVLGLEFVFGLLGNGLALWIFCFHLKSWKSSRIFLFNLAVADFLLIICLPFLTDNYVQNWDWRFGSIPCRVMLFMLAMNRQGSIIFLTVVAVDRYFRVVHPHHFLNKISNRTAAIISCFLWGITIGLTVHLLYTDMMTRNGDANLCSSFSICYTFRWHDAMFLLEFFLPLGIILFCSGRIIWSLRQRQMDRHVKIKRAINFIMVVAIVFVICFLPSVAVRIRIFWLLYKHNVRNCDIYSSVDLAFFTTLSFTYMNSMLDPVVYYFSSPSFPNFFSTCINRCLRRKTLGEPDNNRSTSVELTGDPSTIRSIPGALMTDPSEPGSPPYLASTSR

For `CCCCCCCCCC[Si](C)(C)OCC[N+]1(C)CCc2ccccc2C1.[I-]` (configuration not stated), the values for the LC50 with MG-22A [1] and with HT-1080 [2] were 1 mg/L and less than 1 mg/L, respectively.

Take `CC[Si](C)(CC)OCC[N+]1(C)CCc2ccccc2C1.[I-]` (configuration not stated): the 50% lethal concentration (LC50) (as a rule, the concentration lethal to half of the exposed cells or organisms) with MG-22A [1] is 2 mg/L; with HT-1080 [2], less than 1 mg/L.

`CCCC[Si](C)(C)Oc1ccc(C(=O)N[C@@H](Cc2ccc(-c3ccccc3)cc2)C(=O)NC2CC(C)(C)NC(C)(C)C2)cc1`: the concentration for half-maximal inhibition (IC50) (as a rule, the concentration that inhibits the measured activity by half) in [3] was found to be 1.5 µM.

On to `CCOc1cc(Cl)c(C(=O)NC(=O)Nc2nc3c(s2)C[Si](C)(C)CC3)cc1N1CCOCC1`, for which the EC50 (commonly the concentration at which the effect is half-maximal) in assay [4] was 1.2 µM; in assay [5], 1 µM.

For the compound `CC(C)(C)[Si](c1ccccc1)(c1ccccc1)c1cccc(CN(Cc2ccccn2)Cc2ccccn2)c1O`, the minimum inhibitory concentration (MIC) (commonly the lowest concentration found to suppress growth) in assay [6] is 1.2 mg/L (≈ 2.21 µM).

`C[Si](C)(C)C(S)(C(=S)CCCCn1nnc(SC(=O)c2ccccc2)n1)[Si](C)(C)C`: the MIC in the assay on Pseudomonas aeruginosa, in the assay on Staphylococcus aureus [7], with Salmonella typhimurium and with Escherichia coli [8] was 3.91 mg/L (≈ 7.87 µM) each time.

`CCCCCSc1nnn(CCCCC(=S)C(S)([Si](C)(C)C)[Si](C)(C)C)n1`: the MIC with Pseudomonas aeruginosa, with Staphylococcus aureus [7], with Salmonella typhimurium and with Escherichia coli [8] was 3.91 mg/L (≈ 8.45 µM) throughout.

`C[Si](C)(C)c1ccc([Si](C)(CCCN2CCCCC2)c2ccc([Si](C)(C)C)o2)o1`: the half-inhibitory concentration (IC50) with HT-1080 [9] and with MG-22A [10] was 3 mg/L (≈ 6.7 µM) throughout.

As to `CCN(CC)CCC[Si](C)(c1ccc([Si](C)(C)C)o1)c1ccc([Si](C)(C)C)o1`, the IC50 with HT-1080 [9] and in the assay with MG-22A [10] was 3 mg/L (≈ 6.88 µM) in each case.

For the compound `CC(C)(C)[Si](C)(C)c1cccc(CN(Cc2ccccn2)Cc2ccccn2)c1O`, the minimal inhibitory concentration (MIC) in [6] was 1.2 mg/L (≈ 2.86 µM).

Regarding `O=c1c(F)cn(Cc2cn(CCC[Si-]345OCC[N+]3(CCO4)CCO5)nn2)c(=O)n1Cc1cn(CCC[Si-]234OCC[N+]2(CCO3)CCO4)nn1` (configuration not stated), the MIC50 in the assay with Bacillus subtilis, in the assay on Escherichia coli [11], with Vibrio cholerae and with Staphylococcus aureus [12] was 0.18 mg/L (≈ 0.249 µM) each time.

`C[Si](CCCN1CCOCC1)(c1ccco1)c1ccco1`: the half-inhibitory concentration (IC50) with HT-1080 [9] turned out to be 100 mg/L (≈ 327 µM); with MG-22A [10], 38 mg/L (≈ 124 µM).

Turning to `C[Si](C)(C)C(S)(C(=S)CCCCn1nnc(SCc2ccccc2)n1)[Si](C)(C)C`, the MIC with Pseudomonas aeruginosa, in the assay on Staphylococcus aureus [7], in the assay on Salmonella typhimurium and with Escherichia coli [8] was 3.91 mg/L (≈ 8.1 µM) each time.

With `CC(C)[Si](c1cccc(CN(Cc2ccccn2)Cc2ccccn2)c1O)(C(C)C)C(C)C`, the MIC in [6] is 1.2 mg/L (≈ 2.6 µM).

Turning to `CCC[Si](C)(C)Oc1ccc(C(=O)N[C@@H](Cc2ccc(OCc3c(Cl)cccc3Cl)cc2)C(=O)NC2CC(C)(C)NC(C)(C)C2)cc1`, the IC50 in assay [3] stood at 1.5 µM.

In the case of `CCCCCC[Si](C)(CCCCCC)OCC[N+]1(C)CCc2ccccc2C1.[I-]` (configuration not stated), the LC50 was 1 mg/L with MG-22A [1] and less than 1 mg/L with HT-1080 [2].

Take `CC1(C)CC(NC(=O)[C@H](Cc2ccc(OCc3c(Cl)cccc3Cl)cc2)NC(=O)c2ccc(OCC[Si](C)(C)C)cc2)CC(C)(C)N1`: in [3], the IC50 was found to be 1.5 µM.

For `C[Si](C)(C)c1ccc([Si](C)(CCCN2CCOCC2)c2ccc([Si](C)(C)C)o2)o1`, the 50% inhibitory concentration (IC50) in the assay on HT-1080 [9] and with MG-22A [10] was 3 mg/L (≈ 6.67 µM) throughout.

On to `CCCCSc1nnn(CCCCC(=S)C(S)([Si](C)(C)C)[Si](C)(C)C)n1`, for which the MIC in the assay on Pseudomonas aeruginosa, with Staphylococcus aureus [7], in the assay with Salmonella typhimurium and with Escherichia coli [8] was 3.91 mg/L (≈ 8.71 µM) each time.

For the compound `CCCCCCCCCCCCCCCC[Si](C)(C)OCC[N+]1(C)CCc2ccccc2C1.[I-]` (configuration not stated), the 50% lethal concentration (LC50) in the assay with MG-22A [1] is 1 mg/L; in the assay on HT-1080 [2], less than 1 mg/L.

With `CCCC[Si](CC)(CCCC)OCC[N+]1(C)CCc2ccccc2C1.[I-]` (configuration not stated), the LC50 with MG-22A [1] was 2 mg/L; with HT-1080 [2] it was less than 1 mg/L.

On to `CCN(CC)CCC[Si](C)(c1ccc([Si](CC)(CC)CC)o1)c1ccc([Si](CC)(CC)CC)o1`, for which the half-inhibitory concentration (IC50) with HT-1080 [9] and with MG-22A [10] was 3 mg/L (≈ 5.77 µM) throughout.

`C[Si](C)(C)c1cccc(CN(Cc2ccccn2)Cc2ccccn2)c1O`: the minimal inhibitory concentration (MIC) in [6] is 1.2 mg/L (≈ 3.18 µM).

As for `CCOc1cc(Cl)c(C(=O)NC(=O)Nc2nc3c(s2)C[Si](c2ccccc2)(c2ccccc2)CC3)cc1N1CCOCC1`, the 50% effective concentration (EC50) in [4] was found to be 1.2 µM; in assay [5], 1 µM.

On to `CCOP(=O)(OCC)C(NC(=O)[C@H](Cc1ccc(-c2ccccc2)cc1)NC(=O)c1ccc(OCC[Si](C)(C)C)cc1)P(=O)(OCC)OCC`, for which the 50% inhibitory concentration (IC50) in assay [3] is 1.5 µM.

The values above are taken from ChEMBL document CHEMBL6177939, “The role of silicon in drug discovery: a review” (RSC Med Chem, 2024).
